Laboratory results as given in ChEMBL document CHEMBL4138077, “Rational design, synthesis and biological screening of triazine-triazolopyrimidine hybrids as multitarget anti-Alzheimer agents” (Eur J Med Chem, 2017).
pIC50, pKi: −log10 of the molar value. Activity calls are given as the source filed them. The rule behind the calls is not given here.

Columns and labels:
Acetylcholinesterase [1] = target: T1, Acetylcholinesterase (Electrophorus electricus, UniProt O42275); assay: Inhibition of electric eel AChE using acetylthiocholine iodide as substrate preincubated for 5 mins followed by substrate addition measured after 2 mins by spectroscopy based Ellman's method
T1 sequence (O42275 whole entry): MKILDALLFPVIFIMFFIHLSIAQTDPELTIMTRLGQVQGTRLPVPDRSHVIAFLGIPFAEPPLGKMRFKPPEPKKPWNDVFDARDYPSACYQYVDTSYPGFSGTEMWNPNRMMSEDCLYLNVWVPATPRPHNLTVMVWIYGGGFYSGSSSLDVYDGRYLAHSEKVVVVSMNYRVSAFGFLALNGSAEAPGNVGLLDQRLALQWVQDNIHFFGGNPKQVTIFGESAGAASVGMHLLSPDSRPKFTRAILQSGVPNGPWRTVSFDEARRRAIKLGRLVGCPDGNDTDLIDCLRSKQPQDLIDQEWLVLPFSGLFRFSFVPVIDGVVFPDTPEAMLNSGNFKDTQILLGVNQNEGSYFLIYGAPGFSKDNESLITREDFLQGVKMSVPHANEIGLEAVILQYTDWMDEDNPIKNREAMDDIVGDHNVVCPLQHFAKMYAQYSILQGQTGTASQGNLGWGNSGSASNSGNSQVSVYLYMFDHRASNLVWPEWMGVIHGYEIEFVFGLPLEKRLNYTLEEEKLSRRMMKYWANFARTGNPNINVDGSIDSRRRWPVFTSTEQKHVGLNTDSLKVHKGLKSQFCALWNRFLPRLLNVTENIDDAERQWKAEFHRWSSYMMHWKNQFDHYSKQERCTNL

Cholinesterase = Cholinesterase (Equus caballus, UniProt P81908); assay: Inhibition of equine serum BuChE using butyrylthiocholine iodide as substrate preincubated for 5 mins followed by substrate addition measured after 2 mins by spectroscopy based Ellman's method
Chain of Cholinesterase (P81908 whole entry, the tested form may be a part): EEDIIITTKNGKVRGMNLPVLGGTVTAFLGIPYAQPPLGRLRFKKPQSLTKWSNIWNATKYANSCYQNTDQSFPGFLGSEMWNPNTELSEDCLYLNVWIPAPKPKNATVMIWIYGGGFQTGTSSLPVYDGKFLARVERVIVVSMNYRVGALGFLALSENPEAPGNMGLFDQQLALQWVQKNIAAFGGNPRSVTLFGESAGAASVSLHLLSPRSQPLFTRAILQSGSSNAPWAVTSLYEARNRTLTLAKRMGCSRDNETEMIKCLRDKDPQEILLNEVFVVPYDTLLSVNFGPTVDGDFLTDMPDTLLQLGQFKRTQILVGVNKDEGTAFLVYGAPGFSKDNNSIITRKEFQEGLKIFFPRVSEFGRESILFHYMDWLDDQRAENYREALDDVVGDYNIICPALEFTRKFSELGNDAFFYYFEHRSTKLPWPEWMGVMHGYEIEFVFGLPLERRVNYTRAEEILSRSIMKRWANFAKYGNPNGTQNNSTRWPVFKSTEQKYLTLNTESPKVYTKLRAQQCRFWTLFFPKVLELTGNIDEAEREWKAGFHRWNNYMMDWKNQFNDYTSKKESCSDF

[2] = target: T2, Amyloid-beta precursor protein (Homo sapiens, UniProt P05067); assay: Inhibition of HFIP-pretreated amyloid beta (1 to 42 residues) (unknown origin) self aggregation at 25 uM after 24 hrs by ThT-based fluorometric method
T2 sequence (P05067 whole entry, the tested form may be a part): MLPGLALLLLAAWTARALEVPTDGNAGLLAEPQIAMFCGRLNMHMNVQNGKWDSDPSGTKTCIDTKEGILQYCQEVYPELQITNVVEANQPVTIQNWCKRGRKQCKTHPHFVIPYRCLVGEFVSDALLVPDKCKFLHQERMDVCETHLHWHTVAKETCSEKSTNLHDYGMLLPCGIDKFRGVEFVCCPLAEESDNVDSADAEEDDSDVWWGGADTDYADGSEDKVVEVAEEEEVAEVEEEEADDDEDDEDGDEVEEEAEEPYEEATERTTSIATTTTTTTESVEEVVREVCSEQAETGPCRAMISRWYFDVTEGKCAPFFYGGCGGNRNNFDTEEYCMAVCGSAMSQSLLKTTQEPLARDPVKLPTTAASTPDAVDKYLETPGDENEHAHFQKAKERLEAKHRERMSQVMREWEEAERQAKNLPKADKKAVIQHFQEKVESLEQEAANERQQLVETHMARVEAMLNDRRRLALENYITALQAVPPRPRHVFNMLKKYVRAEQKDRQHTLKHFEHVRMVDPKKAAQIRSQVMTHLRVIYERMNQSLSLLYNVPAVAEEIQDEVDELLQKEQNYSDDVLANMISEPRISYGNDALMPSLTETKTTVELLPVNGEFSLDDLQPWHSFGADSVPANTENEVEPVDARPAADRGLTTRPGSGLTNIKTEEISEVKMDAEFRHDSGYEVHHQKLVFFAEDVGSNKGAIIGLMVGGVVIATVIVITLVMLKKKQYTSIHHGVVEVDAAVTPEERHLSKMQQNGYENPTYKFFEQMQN

[3] = target: T2, Amyloid-beta precursor protein
Description: Inhibition of HFIP-pretreated amyloid beta (1 to 42 residues) (unknown origin) self aggregation after 24 hrs by ThT-based fluorometric method

Acetylcholinesterase [4] = target: T1, Acetylcholinesterase; assay: Mixed-type inhibition of electric eel AChE using varying levels of acetylthiocholine iodide as substrate preincubated for 15 mins followed by substrate addition by Lineweaver-Burk plot analysis
[5] = target: T2, Amyloid-beta precursor protein; assay: Inhibition of amyloid beta (1 to 42) (unknown origin) fibril formation at 25 uM after 24 hrs by uranyl acetate staining based transmission electron microscopic method
[6] = target: T2, Amyloid-beta precursor protein; assay: Binding affinity to amyloid beta (1 to 42) (unknown origin) assessed as increase in alpha helix conformation at 10 uM after 12 hrs by CD spectroscopic method
[7] = target: T2, Amyloid-beta precursor protein; assay: Binding affinity to amyloid beta (1 to 42) (unknown origin) assessed as decrease in beta sheet and random structure conformation at 10 uM after 12 hrs by CD spectroscopic method
[8] = Metal chelating activity of the compound assessed as formation of Zn2+-compound complex by measuring change in red shift in maximum absorption at 50 uM after 30 mins by UV-vis spectrophotometric method (reference value: […] nanometer)
[9] = Metal chelating activity of the compound assessed as formation of Fe2+-compound complex by measuring change in red shift in maximum absorption at 50 uM after 30 mins by UV-vis spectrophotometric method (reference value: […] nanometer)
[10] = Metal chelating activity assessed as inhibition of Cu2+-induced amyloid beta (1 to 42 residues) aggregation at 50 uM after 24 hrs by thioflavin-T fluorescence assay
[11] = Metal chelating activity assessed as inhibition of Cu2+-induced amyloid beta (1 to 42 residues) aggregation by measuring reduction in amyloid fibrils at 50 uM after 24 hrs by uranyl acetate staining based transmission electron microscopic analysis
[12] = Metal chelating activity of the compound assessed as mole fraction of compound causing 1:1 stoichiometry for formation of Cu2+-compound complex at 50 uM after 30 mins by UV-vis spectrophotometric method
[13] = (§1) Metal chelating activity of the compound assessed as formation of Cu2+-compound complex by measuring change in red shift in maximum absorption at 50 uM after 30 mins by UV-vis spectrophotometric method (reference value: […] nanometer)
[14] = as §1; remark: listed apart in the source

Row | SMILES | pIC50 (Acetylcholinesterase [1]) | pIC50 (Cholinesterase) | inhibition [2] | pIC50 [3] | also measured
1 | Cc1ccc(Nc2nc(Cl)nc(Nc3ccc(F)c(Cl)c3)n2)cc1 | 6.04 | 5.56 | 62.5% | 4.74 | –
2 | Fc1ccc(Nc2nc(Cl)nc(Nc3cccc(C(F)(F)F)c3)n2)cc1Cl | 6.36 | 5.40 | 46.2% | – | –
3 | Cc1ccc(Nc2nc(Nc3cccc(C(F)(F)F)c3)nc(N3CCN(c4cc(C)nc5ncnn45)CC3)n2)cc1 | 6.25 | 5.76 | 22.4% | – | –
4 | Cc1ccc(Nc2nc(Cl)nc(Nc3cccc(C(F)(F)F)c3)n2)cc1 | 6.17 | 5.68 | 64.8% | 4.68 | –
5 | Fc1ccc(Nc2nc(Cl)nc(Nc3cccc(C(F)(F)F)c3)n2)cc1 | 6.28 | 5.61 | 63% | 4.73 | –
6 | FC(F)(F)c1cccc(Nc2nc(NC3CC3)nc(N3CCNCC3)n2)c1 | 5.90 | 5.44 | 58.8% | 4.63 | –
7 | COc1ccc(Nc2nc(Cl)nc(N3CCN(c4cc(C)nc5ncnn45)CC3)n2)cc1 | 7.04 | 5.82 | 68.5% | 4.94 | pKi (Acetylcholinesterase [4]): 6.99; inhibition [5]: Active; Activity [6]: Active; Activity [7]: Active; Activity [8]: 236 nm; Activity [9]: 234 nm; inhibition [10]: 66.6%; inhibition [11]: Active; Activity (mole fraction) [12]: 0.96
8 | Cc1cc(N2CCN(c3nc(Nc4cccc(C(F)(F)F)c4)nc(NC4CC4)n3)CC2)n2ncnc2n1 | 6.04 | 5.72 | 44.3% | – | –
9 | Cc1cc(N2CCN(c3nc(Cl)nc(Nc4cccc(C(F)(F)F)c4)n3)CC2)n2ncnc2n1 | 7.19 | 5.73 | 75.3% | 4.98 | pKi (Acetylcholinesterase [4]): 7.16; inhibition [5]: Active; Activity [6]: Active; Activity [7]: Active; Activity [8]: Active; Activity [13]: 214 nm; Activity [9]: Active; inhibition [10]: 69.7%; inhibition [11]: Active; Activity [14]: 238 nm; Activity (mole fraction) [12]: > 0.9
10 | COc1ccc(Nc2nc(Cl)nc(Nc3ccc(F)c(Cl)c3)n2)cc1 | 6.15 | 5.79 | 60.7% | 4.62 | –
11 | Cc1cc(N2CCN(c3nc(Cl)nc(Nc4ccc(F)cc4)n3)CC2)n2ncnc2n1 | 6.94 | 6.03 | 64.5% | 4.80 | –
12 | Cc1cc(N2CCN(c3nc(Nc4cccc(C(F)(F)F)c4)nc(Nc4ccc(F)c(Cl)c4)n3)CC2)n2ncnc2n1 | 6.41 | 5.58 | 61.7% | 4.79 | –
13 | Cc1ccc(Nc2nc(Nc3ccc(F)c(Cl)c3)nc(N3CCN(c4cc(C)nc5ncnn45)CC3)n2)cc1 | 6.07 | 5.42 | 49.3% | 4.60 | –
14 | Fc1ccc(Nc2nc(Cl)nc(Nc3cccc(C(F)(F)F)c3)n2)c(F)c1 | 6.30 | 5.36 | 65.2% | 4.75 | –
15 | COc1cc(/C=C/C(=O)CC(=O)/C=C/c2ccc(O)c(OC)c2)ccc1O | – | – | – | – | inhibition [5]: Active; inhibition [10]: 60.3%
16 | Cc1cc(N2CCN(c3nc(Cl)nc(Nc4ccccc4F)n3)CC2)n2ncnc2n1 | 6.54 | 5.65 | 65.8% | 4.87 | –
17 | COc1ccc(Nc2nc(Cl)nc(Nc3cccc(C(F)(F)F)c3)n2)cc1 | 6.23 | 5.53 | 67.2% | 4.75 | –
18 | Cc1cc(N2CCN(c3nc(Nc4ccc(F)cc4)nc(Nc4cccc(C(F)(F)F)c4)n3)CC2)n2ncnc2n1 | 6.14 | 5.60 | 54.7% | 4.74 | –
